Reference: ChEMBL document CHEMBL1138742, “Potent and orally bioavailable non-peptide antagonists at the human bradykinin B(1) receptor based on a 2-alkylamino-5-sulfamoylbenzamide core” (J Med Chem, 2004)

The molecules below were run against T1, B1 bradykinin receptor (Homo sapiens, UniProt P46663) (assay: Inhibition of Bradykinin receptor B1 expressed in HEK293 cells).
T1 sequence (P46663 whole entry): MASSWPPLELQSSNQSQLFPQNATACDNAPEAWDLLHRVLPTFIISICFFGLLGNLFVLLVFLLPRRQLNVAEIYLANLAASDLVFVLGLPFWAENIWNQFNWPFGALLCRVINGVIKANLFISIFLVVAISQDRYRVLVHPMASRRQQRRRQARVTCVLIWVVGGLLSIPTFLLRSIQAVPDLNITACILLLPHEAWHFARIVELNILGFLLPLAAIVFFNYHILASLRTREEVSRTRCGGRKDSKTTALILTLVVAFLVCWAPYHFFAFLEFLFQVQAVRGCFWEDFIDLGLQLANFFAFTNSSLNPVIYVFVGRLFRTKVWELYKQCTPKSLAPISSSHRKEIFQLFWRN
Format: cell-based

Row | IC50 | Compound
1 | 6200 nM | CN(C)CCCN(CCCN(C)C)S(=O)(=O)c1ccc(NC(c2ccccc2)c2ccccc2)c([N+](=O)[O-])c1

What follows are molecules tested against T1, B1 bradykinin receptor (assay: Binding affinity for Bradykinin receptor B1 expressed in HEK293 cells).
Format: cell-based

Row | Compound | Ki
2 | CN(C)CCCN(CCCN(C)C)C(=O)CCNS(=O)(=O)c1ccc(NCC(c2ccccc2)c2ccccc2)c(Cl)c1 | > 1000 nM
3 | CN(C)CCCN(CCCN(C)C)C(=O)CCNS(=O)(=O)c1ccc(NCC(c2ccccc2)c2ccccc2)c([N+](=O)[O-])c1 | 140 nM
4 | CN(C)CCCN(CCCN(C)C)S(=O)(=O)c1ccc(NCC(c2ccccc2)c2ccccc2)c([N+](=O)[O-])c1 | 230 nM
5 | CN(C)CCCN(CCCN(C)C)S(=O)(=O)c1ccc(NC(c2ccccc2)c2ccccc2)c([N+](=O)[O-])c1 | 3000 nM
6 | CC(=O)c1cc(S(=O)(=O)NCCC(=O)N(CCCN(C)C)CCCN(C)C)ccc1NCC(c1ccccc1)c1ccccc1 | 130 nM
7 | CN(C)CCCN(CCCN(C)C)C(=O)C1CCN(S(=O)(=O)c2ccc(NCC(c3ccccc3)c3ccccc3)c([N+](=O)[O-])c2)CC1 | 10 nM
8 | CN(C)CCCN(CCCN(C)C)S(=O)(=O)c1ccc(NC(Cc2ccccc2)Cc2ccccc2)c([N+](=O)[O-])c1 | 250 nM

The remaining molecules from weak to strong by Ki, led by results:

Row | Ki | Compound
9 | 10 nM | CC(C)N1CCN(C(=O)C2CCN(S(=O)(=O)c3ccc(NCC(c4ccccc4)c4ccccc4)c(C(=O)N4CCOCC4)c3)CC2)CC1
10 | 10 nM | CN(C)CCCN(CCCN(C)C)C(=O)CCNS(=O)(=O)c1ccc(NCC(c2ccccc2)c2ccccc2)c(C(=O)N2CCOCC2)c1
11 | 10 nM | CN1CCN(C(=O)C2CCN(S(=O)(=O)c3ccc(NCC(c4ccccc4)c4ccccc4)c(C(=O)N4CCOCC4)c3)CC2)CC1
12 | 1 nM | CN(C)CCCN(CCCN(C)C)C(=O)C1CCN(S(=O)(=O)c2ccc(NCC(c3ccccc3)c3ccccc3)c(C(=O)N3CCOCC3)c2)CC1

Each molecule was assayed against T2, B2 bradykinin receptor (Homo sapiens, UniProt P30411) (assay: Binding affinity for Bradykinin receptor B2 expressed in COS7 cells).
T2 sequence (P30411 whole entry): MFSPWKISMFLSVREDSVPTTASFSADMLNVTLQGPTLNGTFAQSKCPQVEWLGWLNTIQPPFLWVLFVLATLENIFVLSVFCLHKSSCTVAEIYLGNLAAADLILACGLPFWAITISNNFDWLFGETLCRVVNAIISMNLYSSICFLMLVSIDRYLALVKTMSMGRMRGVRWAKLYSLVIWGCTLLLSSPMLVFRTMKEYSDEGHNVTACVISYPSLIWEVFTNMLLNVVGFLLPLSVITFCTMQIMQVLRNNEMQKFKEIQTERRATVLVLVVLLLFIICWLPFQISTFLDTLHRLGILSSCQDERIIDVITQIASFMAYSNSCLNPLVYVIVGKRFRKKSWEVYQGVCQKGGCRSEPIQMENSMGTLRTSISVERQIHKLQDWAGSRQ
Format: cell-based, COS-7

Row | Ki | Compound
13 | 1400 nM | CN(C)CCCN(CCCN(C)C)S(=O)(=O)c1ccc(NC(c2ccccc2)c2ccccc2)c([N+](=O)[O-])c1
